Source: patent US8431170B2, “Antimicrobial composition with low cytotoxicity” (Oy Granula AB Ltd., priority 2008, dated 2013)
Where two headings read alike, the source gives them in different places.

Key:
human keratinocyte cells = type: cell-based
[1] = Antioxidative capacity: inhibition of the peroxidation of lipids; type: biochemical; conditions: pure polyphenols isolated from wood material
Text: In Tables 4A, 4B, 4C and 4D, there are represented antioxidative and free radical capturing effects of pure polyphenolic compounds and of unrefined polyphenolic compounds containing raw extracts obtained from wood bark and knotty stemwood. Tables 4A and 4B represent the antioxidative effect of a few pure polyphenols and of unrefined polyphenolic compounds containing raw extracts, obtained from wood bark and knotty stemwood. Tables 4C and 4D in turn illustrate the peroxide radicals capturing capacity of a few pure polyphenols and of unrefined, polyphenolic compounds containing raw extracts, obtained from wood bark and knotty stemwood. In Tables 4A-4D, it can be observed that the antioxidative and free radical capturing properties of solutions containing pure polyphenol compounds, obtained from wood material in hydrophilic extraction, are often remarkably different from the corresponding properties of compound mixtures containing unrefined raw extract solutions and obtained from wood material in hydrophilic extraction, owing to the synergetic effects of the compounds contained in the compound mixtures in unrefined extracts. The compound mixtures according to the invention are obtained from these unrefined raw extract solutions.

[2] = Peroxide radicals capturing capacity; type: biochemical; conditions: pure polyphenols isolated from wood material
Text: Tables 4C and 4D further represent the free radicals capturing capacity of certain pure polyphenols and unrefined polyphenol extracts with respect to peroxide radicals. Tables 4A and 4B represent the antioxidative effect of a few pure polyphenols and of unrefined polyphenolic compounds containing raw extracts, obtained from wood bark and knotty stemwood. Tables 4C and 4D in turn illustrate the peroxide radicals capturing capacity of a few pure polyphenols and of unrefined, polyphenolic compounds containing raw extracts, obtained from wood bark and knotty stemwood. In Tables 4A-4D, it can be observed that the antioxidative and free radical capturing properties of solutions containing pure polyphenol compounds, obtained from wood material in hydrophilic extraction, are often remarkably different from the corresponding properties of compound mixtures containing unrefined raw extract solutions and obtained from wood material in hydrophilic extraction, owing to the synergetic effects of the compounds contained in the compound mixtures in unrefined extracts. The compound mixtures according to the invention are obtained from these unrefined raw extract solutions.

[3] = pure polyphenols; values marked 1: Willför et al., J. Agric. Food Chem. 51, 7600-7606 (2003); cited from earlier work
[4] = pure polyphenols; values marked 1: Willför et al., J. Agric. Food Chem. 51 (2003); cited from earlier work

Molecule: Cc1cc(C(C)(C)C)c(O)c(C(C)(C)C)c1 [BTH, butylated hydroxytoluene]
- EC20 (limit value by which 20% of the cultivated cells died) (human keratinocyte cells; human, 24 h): 5.50 ppm
- times more cytotoxic than HMR powder (human keratinocyte cells; ratio to HMR powder): 10-20 times

Molecule: COc1cc([C@H]2c3cc(O)c(OC)cc3C[C@@H](CO)[C@@H]2CO)ccc1O [Cyclolariciresinol]
- EC50 which inhibits 50% of the peroxidation of the lipids [1]: 0.017 µg/mL
- Peroxide radicals capturing capacity [2]: 12 mmol/g

Molecule: O=C1c2c(O)cc(O)cc2O[C@H](c2ccc(O)cc2)[C@H]1O [Dihydrokaempferol]
- EC50 which inhibits 50% of the peroxidation of the lipids [1]: 0.488 µg/mL
- Peroxide radicals capturing capacity [2]: 0.78 mmol/g

Molecule: COc1cc(C[C@H]2C(=O)OC[C@@H]2[C@H](O)c2ccc(O)c(OC)c2)ccc1O [Hydroxymatairesinol]
- Peroxide radicals capturing capacity [3]: 5.6 mmol/g
- EC50 which inhibits 50% of the peroxidation of the lipids [4]: 0.058 µg/mL

Molecule: COc1cc(C[C@H]2CO[C@H](c3ccc(O)c(OC)c3)[C@H]2CO)ccc1O [Lariciresinol]
- Peroxide radicals capturing capacity [3]: 2.7 mmol/g
- EC50 which inhibits 50% of the peroxidation of the lipids [4]: 0.126 µg/mL

Molecule: COc1cc(C[C@H]2COC(=O)[C@@H]2Cc2ccc(O)c(OC)c2)ccc1O [Matairesinol]
- Peroxide radicals capturing capacity [3]: 2.9 mmol/g
- EC50 which inhibits 50% of the peroxidation of the lipids [4]: 0.099 µg/mL

Molecule: Oc1ccc([C@H]2Oc3c(ccc(O)c3O)[C@@H](O)[C@H]2O)cc1O [Melacasidine]
- EC50 which inhibits 50% of the peroxidation of the lipids [1]: 0.036 µg/mL
- Peroxide radicals capturing capacity [2]: 20 mmol/g

Molecule: COc1cc(C[C@H]2COC(=O)[C@]2(O)Cc2ccc(O)c(OC)c2)ccc1O [Nortrachelogenin]
- Peroxide radicals capturing capacity [3]: 5.9 mmol/g
- EC50 which inhibits 50% of the peroxidation of the lipids [4]: 0.053 µg/mL

Molecule: O=C1C[C@@H](c2ccccc2)Oc2cc(O)cc(O)c21 [Pinosembrin]
- EC50 which inhibits 50% of the peroxidation of the lipids [1]: 1.135 µg/mL
- Peroxide radicals capturing capacity [2]: 0.49 mmol/g

Molecule: Oc1cc(O)cc(/C=C/c2ccccc2)c1 [Pinosylvin]
- EC50 which inhibits 50% of the peroxidation of the lipids [1]: 0.05 µg/mL
- Peroxide radicals capturing capacity [2]: 0.78 mmol/g

Molecule: COc1cc(C[C@@H](CO)[C@H](CO)Cc2ccc(O)c(OC)c2)ccc1O [Secoisolariciresinol]
- Peroxide radicals capturing capacity [3]: 8.5 mmol/g
- EC50 which inhibits 50% of the peroxidation of the lipids [4]: 0.037 µg/mL

Molecule: O=C1c2c(O)cc(O)cc2O[C@H](c2ccc(O)c(O)c2)[C@H]1O [Taxifolin]
- Peroxide radicals capturing capacity [3]: 16 mmol/g
- EC50 which inhibits 50% of the peroxidation of the lipids [4]: 0.046 µg/mL

Molecule: Oc1ccc([C@H]2Oc3c(ccc(O)c3O)[C@@H](O)[C@H]2O)cc1 [Teracasidine]
- EC50 which inhibits 50% of the peroxidation of the lipids [1]: 0.05 µg/mL
- Peroxide radicals capturing capacity [2]: 7.8 mmol/g

Molecule: Pinoresinol
- EC50 which inhibits 50% of the peroxidation of the lipids [1]: 0.02 µg/mL
- Peroxide radicals capturing capacity [2]: 7.8 mmol/g
